The values below come from patent publication US11896713B2, “Strategies to enhance lung cancer treatment” (Rutgers, The State University of New Jersey, priority 2020, dated 2024).

Entries after “also recorded” stand apart in the source; their conditions may differ. Residues, ends and D or L forms follow the SMILES beside them.

One data set concerns human lung cancer cells. Kind of data set: Orthotopic lung cancer model treated with liposomal cisplatin or carboplatin. It is filed as in vivo, mice. As to conditions: intravenous, 2.5 mg/kg.
Data set [1] relates to LHRH-positive lung cancer cells. Briefly: Cytotoxicity (MTT) and competitive inhibition by LHRH peptide. It is filed as cell-based. The procedure: (§1) Cytotoxicity, Apoptosis Induction and Immune Response. The toxicities of the developed formulations were compared with a commercially used EGFR inhibitor gefitinib in three types of human lung cancer cells with different resistance to the drug. […] Cytotoxicity and apoptosis induction were analyzed by a modified 3-(4,5-Dimethylthiazol-2-yl)-2,5-diphenyltetrazolium bromide (MTT) assay and cell death detection ELISA Plus kit (Roche, Nutley, NJ), respectively. The cells were seeded on a 96 well plate at 10,000 cells per well with 100 μl of growth media in each well and placed in the incubator for 24 hours. After 24 hours, the media was removed and the cells were treated with varying concentrations of above indicated substances. The concentrations of tested substances were prepared using a serial dilution (1:2) to make 12 different working solutions for the cytotoxicity measurement.

The test system of a further data set is A549 lung cancer cells. Briefly: Orthotopic lung cancer model, tumor volume. Format: in vivo, mice. The conditions noted are these: intravenous, TAX 2.5 mg/kg. The method, then:
In Vivo Lung Cancer Model, Imaging and Treatment. All animal experiments were carried out according to the protocol approved by Institutional Animal Care and Use Committee (IACUC). Nude mice were purchased from the approved commercial vendor (Taconic, Germantown, NY). All aspects of the program for procurement, conditioning/quarantine, housing management, veterinary care and disposal of carcasses followed the guidelines set forth in the NIH Guide for the Care and Use of Laboratory Animals. Animals were housed in the […]—accredited animal facility with free access to food and water. Veterinary care was supplied by Rutgers University Lab Animal Services. Orthotopic lung cancer mouse model was created by intratracheal instillation of A549 lung cancer cells as previously described. The progression of tumor growth was monitored using bioluminescent and magnetic resonance (MRI) imaging. Luciferase transfected cancer cells were visualized in live anesthetized animals using in-vivo bioluminescence IVIS system (Xenogen, Alameda, CA). Luciferin (150 mg/kg) was intraperitoneally administered 10-15 minutes before imaging. […] Images (repetition time 2607 ms, echo time 44 ms) were recorded in Fast Spin Echo sequence. […] Magnetic resonance signal and tumor volume were calculated using VivoQuant 1.21 software (Invicro, Boston, MA). […]

A further data set has as its system A549 cells. Kind of data set: Cytotoxicity (MTT). It is filed as cell-based, human. As to conditions: 72 h, 1 μM.
Another data set relates to NCI-H1781 cells. Kind of data set: Cytotoxicity (MTT). The conditions noted are these: 72 h, 1 μM. Format: cell-based, human. The procedure: as §1
For a further data set, the system named is NCI-H3255 cells. Kind of data set: Cytotoxicity (MTT). The conditions noted are these: 72 h, 1 μM. Format: cell-based, human. The procedure:
as §1

The subject of data set [2] is NCI-H1781, A549 and NCI-H3255 NSCLC cell lines. Briefly: Apoptosis induction (cell death detection ELISA). Format: cell-based, human. The conditions noted are these: 72 h; 1 μM gefitinib or 0.3 ng/ml nanocarrier. The procedure:
as §1
The control cells were incubated with fresh media. Previously validated in our laboratory MTT and apoptosis induction measurement protocols were used.

Description for human lung cancer cells: Orthotopic lung cancer mouse model was created by intratracheal instillation of human lung cancer cells. The progression of tumor growth was monitored using bioluminescent and magnetic resonance (MRI) imaging. Luciferase transfected cancer cells were visualized in live anesthetized animals using in-vivo bioluminescence IVIS system (Xenogen, Alameda, CA). Luciferin (150 mg/kg) was intraperitoneally administered 10-15 minutes before imaging. All imaging procedures were performed at special imaging facilities of the Rutgers University Molecular Imaging Center as previously described. Mice were anesthetized with isoflurane (4% for induction of anesthesia and 1-2% for maintenance) using XGI-8 Gas Anesthesia System (Xenogen, Alameda, CA) for all imaging procedures. MRI was performed using a 1 T M2™ whole body scanner (Aspect Imaging, Shoham, Israel). Images (repetition time 2607 ms, echo time 44 ms) were recorded in Fast Spin Echo sequence. At a spatial resolution of 312 μm, the tumors were coronal imaged in a single section through the mouse body using an image matrix of 256×256, a field of view of 80 mm^2, and 4 excitation. Magnetic resonance signal and tumor volume were calculated using VivoQuant 1.21 software (Invicro, Boston, MA).
In order to deliver liposome-based system by inhalation, a Collison nebulizer (BGI, Inc., Waltham, MA) was connected to four-port nose-only exposure chambers (the chamber was made by CH Technologies, Westwood, NJ according to our design). […] The installation was designed and regime of inhalation was selected to keep the inhalation dosage controllable and uniform from animal to animal with a minimal damage to the nanoparticles. The solution of NLC was aerosolized at a flow rate of 2 L/min and then diluted by an additional 2 L/min of air. […] It was also shown that the aerosol distribution between the four ports of the chamber was homogenous. The dose of Cis and Carb in all drug-containing formulations was 2.5 mg/kg for the single administration.

For `N.N.O=C([O-])C1(C(=O)[O-])CCC1.[Pt+2]` [Carb, carboplatin], the antitumor effect result with human lung cancer cells was “slightly slowed the tumor progression; also recorded: somewhat higher antitumor activity”. Take `N.N.[Cl][Pt][Cl]` [Cis, cisplatin]: the antitumor effect entry in the data set on human lung cancer cells is recorded as “slightly slowed the tumor progression”. On to `CCNC(=O)[C@@H]1CCCN1C(=O)[C@H](CCCNC(=N)N)NC(=O)[C@H](CC(C)C)NC(=O)[C@@H](CCCCNC(=O)[C@H](N)CS)NC(=O)[C@H](Cc1ccc(O)cc1)NC(=O)[C@H](CO)NC(=O)[C@H](Cc1c[nH]c2ccccc12)NC(=O)[C@H](Cc1c[nH]cn1)NC(=O)[C@@H](N)CCC(N)=O` [LHRH peptide, Gln-His-Trp-Ser-Tyr-DLys(D-Cys)-Leu-Arg-Pro] (HELM PEPTIDE1{Q.H.W.S.Y.[dK].L.R.P.[CCN[*:1]]}|PEPTIDE2{[dC]}$PEPTIDE1,PEPTIDE2,6:R3-1:R2$$$V2.0), for which, in data set [1], the cytotoxicity result is listed as “did not demonstrate any toxicity”. For the same molecule, the “effect of LHRH receptor ligand on cytotoxicity of LHRH-NLC-TAX” value in data set [1] (cells incubated with different concentrations of LHRH peptide) is listed as “limited cytotoxicity of LHRH-NLC-TAX in a concentration-dependent manner”. With `CC(=O)O[C@H]1C(=O)[C@@]2(C)[C@H]([C@H](OC(=O)c3ccccc3)[C@]3(O)C[C@H](OC(=O)[C@H](O)[C@@H](NC(=O)c4ccccc4)c4ccccc4)C(C)=C1C3(C)C)[C@]1(OC(C)=O)CO[C@@H]1C[C@@H]2O` [TAX, Paclitaxel], in the data set with A549 lung cancer cells, the “decrease of lung tumor volume at the end of the experiment” value is 1.1 times. In the case of `COc1cc2ncnc(Nc3ccc(F)c(Cl)c3)c2cc1OCCCN1CCOCC1` [gefitinib], the sensitivity to gefitinib entry was “moderate sensitivity to gefitinib” in the data set with A549 cells, “most resistant to gefitinib” in the data set with NCI-H1781 cells and “the most sensitive to gefitinib” in the data set with NCI-H3255 cells. Moreover, the apoptosis induction result in data set [2] is listed as “correlated with its cytotoxicity”.
